Literature values as cited in patent US5998416A, “Piperazine, piperidine and tetrahydropyridine derivatives as 5-HT receptor agonists” (Merck Sharp & Dohme Ltd., priority 1996, dated 1999).

Settings: therapeutic doses

## CNS(=O)(=O)Cc1ccc2[nH]cc(CCN(C)C)c2c1 [sumatriptan]
  adverse cardiovascular events in humans: certain adverse cardiovascular events
